Data as given in ChEMBL document CHEMBL4800722, “Data for DCP probe BI 605906” (2021).

How the values were obtained:
[1] = biological target: Cyclin-dependent kinase 14 (Homo sapiens) (UniProt O94921); experiment: CDK14 (PFTK1)/CYC Invitrogen Lab (UK) kinase screen (BI); conditions: Compound concentration 1.0 uM
[2] = biological target: Serine/threonine-protein kinase/endoribonuclease IRE2 (Homo sapiens) (UniProt Q76MJ5); experiment: ERN2 Invitrogen Lab (UK) kinase screen (BI); conditions: Compound concentration 1.0 uM
[3] = biological target: Mitogen-activated protein kinase 15 (Homo sapiens) (UniProt Q8TD08); experiment: MAPK15 (ERK7) Invitrogen Lab (UK) kinase screen (BI); conditions: Compound concentration 1.0 uM
[4] = biological target: Serine/threonine-protein kinase greatwall (Homo sapiens) (UniProt Q96GX5); experiment: MASTL Invitrogen Lab (UK) kinase screen (BI); conditions: Compound concentration 1.0 uM
[5] = biological target: CDK9/Cyclin K (Homo sapiens) (UniProt P50750+O75909); experiment: CDK9_CYCLINK Invitrogen Lab (UK) kinase screen (BI); format: protein-complex assay; conditions: Compound concentration 1.0 uM
[6] = biological target: Ephrin type-A receptor 8 (Homo sapiens) (UniProt P29322); experiment: EPHA8 Invitrogen Lab (UK) kinase screen (BI); conditions: Compound concentration 1.0 uM
[7] = biological target: MAP kinase-interacting serine/threonine-protein kinase 2 (Homo sapiens) (UniProt Q9HBH9); experiment: MKNK2 (MNK2) Invitrogen Lab (UK) kinase screen (BI); conditions: Compound concentration 1.0 uM
[8] = biological target: NT-3 growth factor receptor (Homo sapiens) (UniProt Q16288); experiment: NTRK3 Invitrogen Lab (UK) kinase screen (BI); conditions: Compound concentration 1.0 uM
[9] = biological target: Tyrosine-protein kinase Yes (Homo sapiens) (UniProt P07947); experiment: YES1 Invitrogen Lab (UK) kinase screen (BI); conditions: Compound concentration 1.0 uM
[10] = biological target: AMP-activated protein kinase, AMPK (Rattus norvegicus) (UniProt P54645+Q09137+P80386+P80385+Q9QZH4+Q6V7V4+D4A7E4); experiment: AMPK DUNDEE kinase screen (BI); format: protein-complex assay; conditions: Compound concentration 10.0 uM
[11] = biological target: Cyclin-dependent kinase 2/cyclin A (Homo sapiens) (UniProt P24941+P20248+P78396); experiment: CDK2/CYCLINA DUNDEE kinase screen (BI); format: protein-complex assay; conditions: Compound concentration 10.0 uM
[12] = biological target: MAP/microtubule affinity-regulating kinase 3 (Homo sapiens) (UniProt P27448); experiment: MARK3 DUNDEE kinase screen (BI); conditions: Compound concentration 10.0 uM
[13] = biological target: Dual specificity mitogen-activated protein kinase kinase 1 (Homo sapiens) (UniProt Q02750); experiment: MKK1 DUNDEE kinase screen (BI); conditions: Oryctolagus cuniculus; Compound concentration 10.0 uM
[14] = biological target: Ribosomal protein S6 kinase beta-1 (Homo sapiens) (UniProt P23443); experiment: S6K1 DUNDEE kinase screen (BI); conditions: Compound concentration 10.0 uM
[15] = biological target: GABA-A receptor; anion channel (Rattus norvegicus) (UniProt O09028+P15431+P18506+P18508+P19969+P20236+P23574+P23576+P28471+P28473+P30191+P62813+P63079+P63138+Q91ZM7+Q9ES14); conditions: Compound concentration 10.0 uM
[16] = biological target: Histamine H3 receptor (Homo sapiens) (UniProt Q9Y5N1); conditions: Compound concentration 10.0 uM
[17] = biological target: Alpha-1A adrenergic receptor (Homo sapiens) (UniProt P35348); conditions: Compound concentration 10.0 uM
Chain of Alpha-1A adrenergic receptor (Homo sapiens) (P35348 whole entry): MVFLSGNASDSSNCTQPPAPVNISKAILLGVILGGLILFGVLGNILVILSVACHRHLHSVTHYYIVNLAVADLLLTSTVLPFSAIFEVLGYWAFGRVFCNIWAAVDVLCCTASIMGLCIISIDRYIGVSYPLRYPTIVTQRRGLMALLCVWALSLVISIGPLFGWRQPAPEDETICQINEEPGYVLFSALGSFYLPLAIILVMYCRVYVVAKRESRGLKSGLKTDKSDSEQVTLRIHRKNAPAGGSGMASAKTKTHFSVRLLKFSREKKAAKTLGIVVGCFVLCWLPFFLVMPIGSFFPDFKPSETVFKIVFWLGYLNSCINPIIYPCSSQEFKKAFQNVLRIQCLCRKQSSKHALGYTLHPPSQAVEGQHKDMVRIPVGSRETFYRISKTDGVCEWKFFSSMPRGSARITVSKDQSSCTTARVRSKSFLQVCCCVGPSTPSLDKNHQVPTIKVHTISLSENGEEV

Chymase (Homo sapiens) = Chymase (Homo sapiens) (UniProt P23946); conditions: Compound concentration 10.0 uM
[18] = biological target: T1, D(4) dopamine receptor (Homo sapiens) (UniProt P21917); conditions: Compound concentration 10.0 uM
T1 sequence (whole entry): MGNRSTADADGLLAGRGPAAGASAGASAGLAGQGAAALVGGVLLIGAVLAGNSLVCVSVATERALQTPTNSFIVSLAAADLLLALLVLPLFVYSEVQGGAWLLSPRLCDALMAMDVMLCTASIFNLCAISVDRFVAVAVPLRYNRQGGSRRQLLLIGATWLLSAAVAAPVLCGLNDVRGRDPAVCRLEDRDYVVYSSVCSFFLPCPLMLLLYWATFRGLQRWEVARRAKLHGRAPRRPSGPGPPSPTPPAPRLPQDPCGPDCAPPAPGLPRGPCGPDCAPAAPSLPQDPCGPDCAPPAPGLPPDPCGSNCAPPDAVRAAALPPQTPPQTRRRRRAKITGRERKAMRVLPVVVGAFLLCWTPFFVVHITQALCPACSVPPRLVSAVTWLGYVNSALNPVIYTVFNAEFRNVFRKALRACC

[19] = biological target: Sodium-dependent dopamine transporter (Homo sapiens, UniProt Q01959); conditions: Compound concentration 10.0 uM
[20] = biological target: Tyrosine-protein kinase Fyn (Homo sapiens) (UniProt P06241); conditions: Compound concentration 1.0 uM
[21] = biological target: Mitogen-activated protein kinase kinase kinase kinase 3 (Homo sapiens) (UniProt Q8IVH8); conditions: Compound concentration 1.0 uM
[22] = biological target: Serine/threonine-protein kinase Nek8 (Homo sapiens) (UniProt Q86SG6); conditions: Compound concentration 1.0 uM
[23] = biological target: Serine/threonine-protein kinase 32B (Homo sapiens) (UniProt Q9NY57); conditions: Compound concentration 1.0 uM
[24] = biological target: Non-receptor tyrosine-protein kinase TNK1 (Homo sapiens) (UniProt Q13470); conditions: Compound concentration 1.0 uM
[25] = biological target: Serine/threonine-protein kinase VRK2 (Homo sapiens) (UniProt Q86Y07); conditions: Compound concentration 1.0 uM
Chain of Serine/threonine-protein kinase VRK2 (Homo sapiens) (Q86Y07 whole entry): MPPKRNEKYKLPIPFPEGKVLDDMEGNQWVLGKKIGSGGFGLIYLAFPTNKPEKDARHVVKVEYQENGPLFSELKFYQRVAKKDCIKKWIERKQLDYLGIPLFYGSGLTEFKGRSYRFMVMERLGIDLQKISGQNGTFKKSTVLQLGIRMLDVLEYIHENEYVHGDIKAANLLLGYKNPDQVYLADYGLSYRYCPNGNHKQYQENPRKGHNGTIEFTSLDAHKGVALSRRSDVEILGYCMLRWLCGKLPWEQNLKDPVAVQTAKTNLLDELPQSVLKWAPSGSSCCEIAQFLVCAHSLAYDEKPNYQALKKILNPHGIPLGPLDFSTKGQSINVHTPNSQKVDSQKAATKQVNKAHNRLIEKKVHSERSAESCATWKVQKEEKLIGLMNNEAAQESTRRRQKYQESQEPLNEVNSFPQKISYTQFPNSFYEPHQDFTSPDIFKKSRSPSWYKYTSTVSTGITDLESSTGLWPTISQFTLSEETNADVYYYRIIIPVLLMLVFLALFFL

[26] = biological target: Tyrosine-protein kinase receptor UFO (Homo sapiens) (UniProt P30530)
Chain of Tyrosine-protein kinase receptor UFO (Homo sapiens) (P30530 whole entry): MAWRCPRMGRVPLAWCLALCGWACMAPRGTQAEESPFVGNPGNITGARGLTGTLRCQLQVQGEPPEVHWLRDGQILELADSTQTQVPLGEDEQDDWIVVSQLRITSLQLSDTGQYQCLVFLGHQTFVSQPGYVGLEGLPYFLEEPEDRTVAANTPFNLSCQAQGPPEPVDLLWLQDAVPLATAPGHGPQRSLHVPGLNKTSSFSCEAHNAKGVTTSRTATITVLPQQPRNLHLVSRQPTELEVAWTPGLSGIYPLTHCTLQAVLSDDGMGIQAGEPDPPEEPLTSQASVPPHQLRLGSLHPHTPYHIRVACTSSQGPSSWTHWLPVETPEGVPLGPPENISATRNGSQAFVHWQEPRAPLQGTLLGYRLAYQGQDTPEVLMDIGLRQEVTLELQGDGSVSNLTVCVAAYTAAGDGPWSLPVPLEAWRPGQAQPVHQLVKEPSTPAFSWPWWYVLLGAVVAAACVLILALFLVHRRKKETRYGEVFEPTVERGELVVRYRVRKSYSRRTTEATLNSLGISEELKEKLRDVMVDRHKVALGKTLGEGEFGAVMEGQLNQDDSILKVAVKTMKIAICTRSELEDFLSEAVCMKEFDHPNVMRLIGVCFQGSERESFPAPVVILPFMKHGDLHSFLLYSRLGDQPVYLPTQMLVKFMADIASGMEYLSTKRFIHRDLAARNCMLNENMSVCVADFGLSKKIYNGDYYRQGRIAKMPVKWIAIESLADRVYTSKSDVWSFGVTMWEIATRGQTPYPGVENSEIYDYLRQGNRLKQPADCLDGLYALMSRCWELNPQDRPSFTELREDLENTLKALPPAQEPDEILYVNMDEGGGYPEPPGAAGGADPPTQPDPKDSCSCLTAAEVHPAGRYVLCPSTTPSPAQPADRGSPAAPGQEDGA

[27] = biological target: Casein kinase II subunit alpha' (Homo sapiens) (UniProt P19784); conditions: Compound concentration 1.0 uM
Chain of Casein kinase II subunit alpha' (Homo sapiens) (P19784 whole entry, looked up): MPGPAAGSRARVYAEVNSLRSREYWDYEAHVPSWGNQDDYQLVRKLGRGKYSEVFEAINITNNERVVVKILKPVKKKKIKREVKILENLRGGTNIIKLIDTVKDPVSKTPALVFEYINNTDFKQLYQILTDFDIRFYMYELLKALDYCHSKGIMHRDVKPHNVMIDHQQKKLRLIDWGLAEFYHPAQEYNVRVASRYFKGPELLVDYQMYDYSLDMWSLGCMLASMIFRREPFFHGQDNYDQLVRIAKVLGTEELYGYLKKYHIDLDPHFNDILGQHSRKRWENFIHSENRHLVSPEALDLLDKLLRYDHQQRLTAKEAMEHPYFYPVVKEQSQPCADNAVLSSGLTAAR

[28] = biological target: Epidermal growth factor receptor (Homo sapiens) (UniProt P00533)
Chain of Epidermal growth factor receptor (Homo sapiens) (P00533 whole entry): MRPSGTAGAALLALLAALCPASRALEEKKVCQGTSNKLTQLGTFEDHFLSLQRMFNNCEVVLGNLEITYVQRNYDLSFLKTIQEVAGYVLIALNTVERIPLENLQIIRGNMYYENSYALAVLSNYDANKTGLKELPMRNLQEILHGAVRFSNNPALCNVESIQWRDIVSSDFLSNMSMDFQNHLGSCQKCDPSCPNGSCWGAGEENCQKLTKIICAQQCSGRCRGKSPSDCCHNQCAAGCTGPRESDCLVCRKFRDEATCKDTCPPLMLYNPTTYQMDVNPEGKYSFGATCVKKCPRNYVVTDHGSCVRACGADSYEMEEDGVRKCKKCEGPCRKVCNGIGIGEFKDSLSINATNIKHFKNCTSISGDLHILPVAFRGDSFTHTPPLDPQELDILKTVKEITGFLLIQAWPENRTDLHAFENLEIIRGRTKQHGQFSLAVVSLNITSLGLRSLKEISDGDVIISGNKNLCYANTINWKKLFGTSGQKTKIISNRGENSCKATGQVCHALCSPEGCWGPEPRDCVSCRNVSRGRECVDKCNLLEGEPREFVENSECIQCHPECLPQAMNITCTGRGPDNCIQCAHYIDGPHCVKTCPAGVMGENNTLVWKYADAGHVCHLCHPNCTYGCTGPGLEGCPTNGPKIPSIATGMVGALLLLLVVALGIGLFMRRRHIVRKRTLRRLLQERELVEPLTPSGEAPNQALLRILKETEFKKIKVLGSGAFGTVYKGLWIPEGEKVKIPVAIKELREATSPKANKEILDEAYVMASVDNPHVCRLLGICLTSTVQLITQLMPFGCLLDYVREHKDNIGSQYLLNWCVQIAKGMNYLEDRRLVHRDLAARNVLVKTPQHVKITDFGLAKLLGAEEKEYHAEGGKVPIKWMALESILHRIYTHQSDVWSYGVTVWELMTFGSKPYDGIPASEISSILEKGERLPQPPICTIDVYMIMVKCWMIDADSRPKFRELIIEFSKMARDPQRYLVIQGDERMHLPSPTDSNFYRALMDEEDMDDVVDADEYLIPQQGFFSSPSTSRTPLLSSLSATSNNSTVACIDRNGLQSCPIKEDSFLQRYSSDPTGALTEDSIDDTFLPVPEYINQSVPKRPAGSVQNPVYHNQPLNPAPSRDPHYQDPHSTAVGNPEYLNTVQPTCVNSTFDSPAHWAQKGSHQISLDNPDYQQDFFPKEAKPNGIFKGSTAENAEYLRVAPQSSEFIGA

[29] = biological target: Ephrin type-A receptor 1 (Homo sapiens) (UniProt P21709); conditions: Compound concentration 1.0 uM
[30] = biological target: Ephrin type-A receptor 5 (Homo sapiens) (UniProt P54756); conditions: Compound concentration 1.0 uM
Chain of Ephrin type-A receptor 5 (Homo sapiens) (P54756 whole entry): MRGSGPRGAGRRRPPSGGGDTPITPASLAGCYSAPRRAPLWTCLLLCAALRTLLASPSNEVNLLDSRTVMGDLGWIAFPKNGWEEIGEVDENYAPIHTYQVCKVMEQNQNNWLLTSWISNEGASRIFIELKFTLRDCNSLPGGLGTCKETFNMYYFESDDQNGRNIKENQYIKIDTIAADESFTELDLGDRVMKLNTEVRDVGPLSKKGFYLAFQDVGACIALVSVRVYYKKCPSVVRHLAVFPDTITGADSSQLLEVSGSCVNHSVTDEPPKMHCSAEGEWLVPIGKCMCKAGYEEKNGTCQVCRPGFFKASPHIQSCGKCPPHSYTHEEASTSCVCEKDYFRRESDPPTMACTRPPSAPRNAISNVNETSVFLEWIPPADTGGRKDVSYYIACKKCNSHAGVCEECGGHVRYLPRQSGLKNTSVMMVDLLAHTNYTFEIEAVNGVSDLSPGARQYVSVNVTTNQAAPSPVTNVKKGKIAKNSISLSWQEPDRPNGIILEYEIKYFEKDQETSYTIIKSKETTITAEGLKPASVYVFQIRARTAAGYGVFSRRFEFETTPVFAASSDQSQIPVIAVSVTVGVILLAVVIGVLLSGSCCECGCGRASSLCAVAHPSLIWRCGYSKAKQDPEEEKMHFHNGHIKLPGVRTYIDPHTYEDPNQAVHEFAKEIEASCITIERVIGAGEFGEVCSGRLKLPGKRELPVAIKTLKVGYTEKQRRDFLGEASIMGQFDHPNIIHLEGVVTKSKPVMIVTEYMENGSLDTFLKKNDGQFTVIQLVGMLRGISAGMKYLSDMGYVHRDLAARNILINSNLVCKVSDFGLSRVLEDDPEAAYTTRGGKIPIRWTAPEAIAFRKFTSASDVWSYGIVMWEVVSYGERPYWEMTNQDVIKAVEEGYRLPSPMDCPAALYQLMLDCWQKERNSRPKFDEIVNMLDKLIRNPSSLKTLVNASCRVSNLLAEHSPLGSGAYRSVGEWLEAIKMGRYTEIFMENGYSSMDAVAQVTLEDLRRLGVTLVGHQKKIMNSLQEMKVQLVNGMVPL

[31] = biological target: Tyrosine-protein kinase HCK (Homo sapiens) (UniProt P08631); conditions: Compound concentration 1.0 uM
Chain of Tyrosine-protein kinase HCK (Homo sapiens) (P08631 2-526 limits assumed): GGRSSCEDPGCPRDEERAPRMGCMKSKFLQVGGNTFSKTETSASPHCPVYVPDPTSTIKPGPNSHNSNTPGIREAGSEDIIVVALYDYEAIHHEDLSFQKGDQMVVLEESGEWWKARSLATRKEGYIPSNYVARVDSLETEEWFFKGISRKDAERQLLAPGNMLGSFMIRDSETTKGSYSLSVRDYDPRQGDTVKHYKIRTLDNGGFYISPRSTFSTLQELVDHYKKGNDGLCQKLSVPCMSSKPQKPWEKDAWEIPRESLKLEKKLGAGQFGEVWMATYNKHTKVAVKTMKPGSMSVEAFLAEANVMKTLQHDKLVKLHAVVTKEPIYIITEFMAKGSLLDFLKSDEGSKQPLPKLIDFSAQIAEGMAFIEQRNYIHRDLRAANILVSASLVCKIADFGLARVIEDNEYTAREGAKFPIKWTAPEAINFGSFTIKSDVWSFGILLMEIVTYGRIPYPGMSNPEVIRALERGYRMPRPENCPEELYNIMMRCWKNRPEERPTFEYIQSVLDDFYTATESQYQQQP

[32] = biological target: cAMP-dependent protein kinase catalytic subunit alpha (Homo sapiens) (UniProt P17612)
[33] = biological target: Serine/threonine-protein kinase Sgk3 (Homo sapiens) (UniProt Q96BR1); conditions: Compound concentration 1.0 uM
[34] = biological target: SRSF protein kinase 1 (Homo sapiens) (UniProt Q96SB4); conditions: Compound concentration 1.0 uM
[35] = biological target: Serine/threonine-protein kinase TBK1 (Homo sapiens) (UniProt Q9UHD2); conditions: Compound concentration 1.0 uM

**Q.** What does the source list for CCC(F)(F)c1cc(N2CCC(S(C)(=O)=O)CC2)nc2sc(C(N)=O)c(N)c12 [BI-605906]?
**A.** residual activity [1]: 70%; residual activity [2]: 102%; residual activity [3]: 103%; residual activity [4]: 85%; residual activity [5]: 88%; residual activity [6]: 85%; residual activity [7]: 68%; residual activity [8]: 84%; residual activity [9]: 74%; residual activity [10]: 79.2%; residual activity [11]: 78%; residual activity [12]: 63.8%; residual activity [13]: 19.3%; residual activity [14]: 56.3%; inhibition [15]: 32.6%; inhibition [16]: 0.2%; inhibition [17]: 18.9%; residual activity (Chymase (Homo sapiens)): 93%; residual activity [18]: 95%; residual activity [19]: 105%; residual activity [20]: 97%; residual activity [21]: 93%; residual activity [22]: 95%; residual activity [23]: 96%; residual activity [24]: 92%; residual activity [25]: 82%; residual activity ([26]; Compound concentration 1.0 uM): 98%; residual activity ([26]; Compound concentration 10.0 uM): 85%; residual activity [27]: 87%; residual activity ([28]; Compound concentration 1.0 uM): 99%; residual activity ([28]; Compound concentration 10.0 uM): 90%; residual activity [29]: 82%; residual activity [30]: 94%; residual activity [31]: 90%; residual activity ([32]; Compound concentration 1.0 uM): 98%; residual activity ([32]; Compound concentration 10.0 uM): 71%; residual activity [33]: 96%; residual activity [34]: 99%; residual activity [35]: 96%
